Results: US20250319080A1, “BIO[…] FORMULATIONS AND METHODS OF USE AND MANUFACTURE THEREOF” (PURDUE RESEARCH FOUNDATION, priority 2022, published 2025)
Converted amounts (≈) assume the structure as drawn.

Assay: Solubility of buprenorphine FB in release media
Type: physicochemical
Conditions: 48 hours
Method: The solubility of buprenorphine FB was determined in PBS with 0.05% Tween 20 (PBST) and 0.5% w/v sodium dodecyl sulfate (SDS) in water. The solubility was determined by placing excess buprenorphine FB into the media mentioned above at 37° C. and shaking at 40 RPM for 48 hours. After 48 hours, a sample was taken and centrifuged at 15,000 RPM for 5 minutes. The supernatant was then collected and diluted with the same medium, and the concentration was determined using high-performance liquid chromatography.

## CO[C@@]12CC[C@@]3(C[C@@H]1[C@](C)(O)C(C)(C)C)[C@H]1Cc4ccc(O)c5c4[C@@]3(CCN1CC1CC1)[C@H]2O5 [Buprenorphine FB, Buprenorphine free base]
0.5% w/v sodium dodecyl sulfate in water, 37° C.
  Solubility in 0.5% SDS: 0.336 mg/mL (≈ 718 µM)
PBS with 0.05% Tween 20, 37° C.
  Solubility in PBST: 0.0088 mg/mL (≈ 18.8 µM)
